Measurements as given in the NIST ThermoML archive (doi:10.1016/j.tca.2010.11.011).
Numbers after ± are expanded uncertainties.

Key:
[1] = Molar enthalpy of transition or fusion; conditions: DSC
[2] = DTA; for Normal melting temperature: Crystal; for Triple point temperature: Crystal 2

O=C(O)CCCCC(=O)O [1,6-hexanedioic acid]
Molar enthalpy of transition or fusion ([1]; Crystal): 9.08 ± 0.239 kcal/mol | Normal melting temperature [2]: 153.00 ± 4 °C

CC(CO)(CO)C(=O)O [2,2-bis(hydroxymethyl)propanoic acid]
Molar enthalpy of transition or fusion ([1]; Crystal 2): 9.26 ± 0.263 kcal/mol | Triple point temperature [2]: 458.15 ± 1 K

COC(=O)c1ccc(C(=O)OC)cc1 [dimethyl 1,4-benzenedicarboxylate]
Molar enthalpy of transition or fusion ([1]; Crystal): 7.89 ± 0.232 kcal/mol | Normal melting temperature [2]: 142.00 ± 1 °C

NC(CO)(CO)CO [2-amino-2-(hydroxymethyl)-1,3-propanediol]
Molar enthalpy of transition or fusion ([1]; Crystal 2): 8.25 ± 0.232 kcal/mol | Triple point temperature [2]: 405.15 ± 1 K

O=C(O)/C=C\C(=O)O [cis-1,4-butenedioic acid]
Molar enthalpy of transition or fusion ([1]; Crystal): 6.52 ± 0.194 kcal/mol | Normal melting temperature [2]: 135.00 ± 8 °C

O=C(O)CCCCCCCCC(=O)O [1,10-decanedioic acid]
Molar enthalpy of transition or fusion ([1]; Crystal): 11 ± 0.287 kcal/mol | Normal melting temperature [2]: 132.00 ± 4 °C

O=C1OC(=O)c2ccccc21 [isobenzofuran-1,3-dione]
Molar enthalpy of transition or fusion ([1]; Crystal): 5.63 ± 0.177 kcal/mol | Normal melting temperature [2]: 131.00 ± 1 °C
